# Laboratory results published in patent publication US6010890A, “Method for viral inactivation and compositions for use in same” (New York Blood Center, Inc., priority 1997, dated 2000).
# Entries after “also recorded” stand apart in the source; their conditions may differ. Where two headings read alike, the source gives them in different places.
# Assays:
# HIV = format: cell-based
# HIV (cell-assoc.) = assay: Virus inactivation in RBCC using Pc4 and red light: HIV cell-associated (Example 2); format: cell-based
# baboon RBC = assay: Circulatory survival of baboon RBC after virucidal treatment (preliminary); format: in vivo
# VSV [1] = format: cell-based; settings: for Light Dose (for ≥6 log10 virus kill): Pc4 2 μM with 4 mM cysteine, 1 mM tocopherol succinate, 0.5 mM carnitine, 670 nm LED
# HIV (cell-free) = assay: Virus inactivation in RBCC using Pc4 and red light: HIV cell-free (Example 2); format: cell-based; settings: for Light Dose (for ≥6 log10 virus kill): HIV (cell-free), Pc4 2 μM with 4 mM cysteine, 1 mM tocopherol succinate, 0.5 mM carnitine, 670 nm LED
# RBC [2] = assay: Binding of Pc4 to RBC in RBCC (HPLC after extraction); format: in vitro ADME, human; settings: for Pc4 Bound to RBC: 2 μM
# Description: The amount of Pc4 bound to RBC in the RBCC was measured using HPLC and extraction procedure described previously (Zuk, M. M., et al. J. Chromat. B Biomed. Appl. 673:220-224 (1995)). Amount of Pc4 was expressed as a percentage of the total recovered in RBCC. Recovery of Pc4 was about 90% (±10%).
# ^1 Pc4 was added into RBCC at 2 μM final concentration. At various
# times thereafter at room temperature, RBC were separated by
# centrifugation, rinsed 5 times with PBS, and Pc4 was extracted and
# analyzed by HPLC, as described. Pc4 not bound to RBC was recovered
# quantitatively from the plasma.
# ^1 Pc4 was added into RBCC at 2 μM final concentration formulated
# in the indicated liposomes. After 35 minutes at 4° C., RBC were
# separated by centrifugation, rinsed 5 times with PBS, and Pc4 was analyze
# RBC [3] = assay: RBC hemolysis during storage following virucidal treatment (Example 1); format: cell-based, human
# Description: FIG. 2 represents RBC hemolysis during storage following virucidal treatment. Pc4 was added into RBCC in the indicated delivery vehicle at a final concentration of 2 μM and exposed to 90 J/cm2 broad band red light at room temperature after the indicated incubation time at room temperature. The treated RBCC were stored at 4° C. prior to assay.
# FIG. 4 represents RBC hemolysis during storage following virucidal treatment. PC4 was added to RBCC in the indicated liposomal formulations at 2 μM and exposed to 668 nm light at room temperature and the indicated dose after 5 minutes incubation. The treated RBCC were stored at 4° C. prior to assay.
# FIG. 6 represents RBC hemolysis during storage following virucidal treatment. […] The treated RBCC were stored at 4° C. prior to assay.
# RBCC samples (3 ml in polystyrene tubes) at hematocrit of 58-60% in ADSOL (obtained from Blood Services, New York Blood Center) were irradiated with red light either as a broad band (600-800 nm) or as a narrow band at 668 nm or 700 nm. Broad band light was from a 300 W xenon lamp (Oriel Corp., Stratford, Conn.) equipped with a cutoff filter (λ>600 nm) with an irradiance of 25 mW/cm^2. Narrow band light (27 nm bandwidth at half-height) was from LED arrays (Efos Canada, Inc., Mississauga, Ontario, Canada) emitting at either 668 nm or 700 nm with an irradiance of 50 mW/cm^2. During irradiation the samples were rotated and rolled on a hematology mixer (Fisher Scientific, Inc., Pittsburgh, Pa.) to obtain even exposure. Temperature was kept at 25 or 4° C. by an air stream of appropriate temperature.
# Samples of RBCC were stored after treatment at 4° C. The extent of hemolysis was determined by comparing the hemoglobin in the supernatant to the total hemoglobin. The total hemoglobin was determined by using the Drabkin reagent (Sigma Procedure #525, Sigma Chemical Co., St. Louis, Mo.). The absorption at 540 nm was used to calculate the amount of hemoglobin released in the supernatant.
# VSV [4] = format: cell-based
# BDV = assay: Virus inactivation in RBCC using Pc4 and red light: BDV (Example 2); format: cell-based; settings: for Light Dose (for ≥6 log10 virus kill): Pc4 2 μM with 4 mM cysteine, 1 mM tocopherol succinate, 0.5 mM carnitine, 670 nm LED
# RBC [5] = assay: Hemolysis after 21 day storage of RBCC treated with liposomal Pc4 and formulations of tocopherol succinate (Example 3); format: cell-based; settings: with 2 μM liposomal Pc4, 10 J/cm^2, 670 nm, 4° C.
# Description: RBCC were treated with 2 μM Pc4 in POPC:DOPC=4:1 liposomes in the presence of 1 mM tocopherol succinate in the formulations presented in Table 4 below, and exposed to 10 J/cm^2 of red light (670 nm) emitted by LED array. The RBCC were then stored for 21 days at 4° C.
# Description for rabbit RBC: Pc4 was added to rabbit RBCC in POPC:DOPS=4:1 liposomes at 2 μM and exposed to 0, 10 and 15 J/cm^2, as indicated, of 700 nm light at room temperature after 5 minutes pre-irradiation incubation. The treated RBCC were labeled with ^51 CrO^2- and their circulatory survival assayed as described in Materials and Methods.
# Rabbit RBCC were treated as described for human red cells and their circulatory survival was determined as described previously (Rywkin, S., et al. Photochem. Photobiol. 56:463-469 (1992). Briefly, treated red cells were labelled with 1 μCi/ml Na2 ^51 CrO4 for 1 hour at room temperature and then thoroughly washed with PBS. The labelled cells were infused autologously. At intervals, 1 ml blood was withdrawn and the radioactivity associated with RBC was determined.
compound,measurement,setting,value
"CN(C)CCC[Si](C)(C)O[Si]1(O)n2c3c4ccccc4c2N=C2N=C(N=c4c5ccccc5c(n41)=NC1=NC(=N3)c3ccccc31)c1ccccc12 (stereo not drawn) [Pc4, hydroxysiloxydimethylpropyl-N-dimethyl silicon phthalocyanine]",reduction of circulatory survival of red cells,"rabbit RBC; rabbit, 10 J/cm^2 of 700 nm light (FIG. 7)",about 30%
same,24 hour recovery in vivo of the treated RBC,rabbit RBC; rabbits,exceeded 90%
same,circulatory half-life of RBC,"rabbit RBC; rabbits, 10 J/cm^2 of 700 nm light, control 10.5 days (FIG. 7)",180 h
same,circulatory half-life and 24 hour recovery,"rabbit RBC; rabbits, liposomal Pc4, 10 J/cm^2, 700 nm",close to normal
same,viral reduction of HIV versus RBC hemolysis,HIV,best viral reduction of HIV with the least amount of RBC hemolysis
same,Light Dose (for ≥6 log10 virus kill),"HIV (cell-assoc.); Blood Bags (50 ml), Pc4 2 μM with 4 mM cysteine, 1 mM tocopherol succinate, 0.5 mM carnitine, 670 nm LED",55 J/cm2
same,Light Dose (at this dose only 4 log10 kill),"HIV (cell-assoc.); Test Tubes (3 ml), Pc4 2 μM with 4 mM cysteine, 1 mM tocopherol succinate, 0.5 mM carnitine, 670 nm LED",15 J/cm2
same,virus kill,"HIV (cell-assoc.); Test Tubes, 15 J/cm2",4 log10
same,effect on circulatory survival of red cells,"baboon RBC; baboon, 10 J/cm^2 of 700 nm light",only a slight effect
same,24 hour recovery in vivo of the treated RBC,baboon RBC; baboons,exceeded 90%
same,circulatory half-life and 24 hour recovery,"baboon RBC; baboons, liposomal Pc4, 10 J/cm^2, 700 nm",essentially normal
same,circulatory half-life of RBC,"baboon RBC; baboons, liposomal Pc4 and 10 J/cm2 of 700 nm light, from 13.2 days, preliminary",278 h
same,Light Dose (for ≥6 log10 virus kill),VSV [1]; Blood Bags (50 ml),22 J/cm2
same,Light Dose (for ≥6 log10 virus kill),VSV [1]; Test Tubes (3 ml),5 J/cm2
same,virus kill,VSV [1]; at the light doses of Table 3,≥ 6 log10
same,Light Dose (for ≥6 log10 virus kill),HIV (cell-free); Blood Bags (50 ml),55 J/cm2
same,Light Dose (for ≥6 log10 virus kill),HIV (cell-free); Test Tubes (3 ml),15 J/cm2
same,virus kill,"HIV (cell-free); HIV, at the light doses of Table 3",≥ 6 log10
same,Pc4 binding to RBC at room temperature compared with 4° C.,"RBC [2]; POPC:DOPS=9:1 liposomes, Tables 1 and 2",more binding to RBC than at 4 °C
same,Pc4 Bound to RBC,"RBC [2]; delivery vehicle CRM, incubation time 0 min, room temperature",59%
same,Pc4 Bound to RBC,"RBC [2]; delivery vehicle CRM, incubation time 5 min, room temperature",58%
same,Pc4 Bound to RBC,"RBC [2]; delivery vehicle CRM, incubation time 30 min, room temperature",58%
same,Pc4 Bound to RBC,"RBC [2]; delivery vehicle CRM, incubation time 90 min, room temperature",64%
same,Pc4 Bound to RBC,"RBC [2]; delivery vehicle DMSO, incubation time 0 min, room temperature",54%
same,Pc4 Bound to RBC,"RBC [2]; delivery vehicle DMSO, incubation time 5 min, room temperature",54%
same,Pc4 Bound to RBC,"RBC [2]; delivery vehicle DMSO, incubation time 30 min, room temperature",56%
same,Pc4 Bound to RBC,"RBC [2]; delivery vehicle DMSO, incubation time 90 min, room temperature",54%
same,Pc4 Bound to RBC,"RBC [2]; delivery vehicle Liposomes (POPC:DOPS = 9:1), incubation time 0 min, room temperature",6%
same,Pc4 Bound to RBC,"RBC [2]; delivery vehicle Liposomes (POPC:DOPS = 9:1), incubation time 5 min, room temperature",9%
same,Pc4 Bound to RBC,"RBC [2]; delivery vehicle Liposomes (POPC:DOPS = 9:1), incubation time 30 min, room temperature",15%
same,Pc4 Bound to RBC,"RBC [2]; delivery vehicle Liposomes (POPC:DOPS = 9:1), incubation time 90 min, room temperature",44%
same,Pc4 Bound to RBC,"RBC [2]; liposomal preparation POPC:DOPS = 1:1, 35 minutes at 4° C.",0.8%
same,Pc4 Bound to RBC,"RBC [2]; liposomal preparation POPC:DOPS = 1:2, 35 minutes at 4° C.",1.0%
same,Pc4 Bound to RBC,"RBC [2]; liposomal preparation POPC:DOPS = 4:1, 35 minutes at 4° C.",4.4%
same,Pc4 Bound to RBC,"RBC [2]; liposomal preparation POPC:DOPS = 9:1, 35 minutes at 4° C.",4.8%
same,Pc4 Bound to RBC,"RBC [2]; liposomal preparation POPC:DOPS:PEG = 8:1:1, 35 minutes at 4° C.",23.5%
same,Pc4 Bound to RBC,"RBC [2]; liposomal preparation POPC:DOPS:chol = 9:1:10, 35 minutes at 4° C.",33.7%
same,"Pc4 binding to red cells, effect of liposome composition","RBC [2]; words, PEG, cholesterol or DOPS ratio as stated (Table 2)",progressively reduced binding of Pc4 to red cells
same,"hemolysis development during storage, 668 nm compared with 700 nm LED","RBC [3]; Pc4 2 μM in POPC:DOPS=4:1 liposomes, 10 J/cm^2 (FIG. 6)",much faster
same,"rate of hemolysis during storage, 700 nm LED compared with untreated control","RBC [3]; Pc4 2 μM in POPC:DOPS=4:1 liposomes, 10 J/cm^2 of 700 nm light (FIG. 6)",only slightly faster than in control
same,RBC damage / hemolysis at equivirucidal doses,"RBC [3]; Pc4 2 μM in POPC:DOPS=4:1 liposomes, 668 nm (FIG. 4)",least RBC damage; also recorded: minimal hemolysis
same,"RBC hemolysis during storage, liposomes vs other vehicles","RBC [3]; Pc4 2 μM, 90 J/cm2 broad band red light, 4° C. storage (FIG. 2)",less hemolysis
same,"RBC hemolysis during storage, effect of incubation time","RBC [3]; liposomal Pc4 2 μM, 90 J/cm2 broad band red light (FIG. 2)",incubation for 5 minutes was better than for 30 minutes
same,hemolysis following a virucidal light dose,"RBC [3]; liposomal Pc4, 10 J/cm^2, 700 nm, over 3 weeks storage, 30240 min, 2 µM",≤ 1%
same,"inactivation of VSV, 668 vs 700 nm LED","VSV [4]; Pc4 2 μM in POPC:DOPS=4:1 liposomes, 4° C. (FIG. 5)",equally effective
same,"rate of inactivation of VSV, dependence on pre-irradiation incubation time","VSV [4]; liposomal Pc4 2 μM, broad band red light (FIG. 1)",does not depend on time of incubation of liposomal Pc4 prior to light exposure
same,"VSV kill, effect of incubation temperature",VSV [4]; room temperature vs 4° C.,not affected by the incubation temperature
same,Light Dose (for ≥6 log10 virus kill),BDV; Blood Bags (50 ml),30 J/cm2
same,Light Dose (for ≥6 log10 virus kill),BDV; Test Tubes (3 ml),7 J/cm2
same,virus kill,BDV; at the light doses of Table 3,≥ 6 log10
Cc1c(C)c2c(c(C)c1OC(=O)CCC(=O)O)CCC(C)(CCCC(C)CCCC(C)CCCC(C)C)O2 (stereo not drawn) [α-tocopherol succinate],Hemolysis After 21 Day Storage,RBC [5]; 1 mM α-tocopherol succinate formulated in Ethanol,10.5%
same,Hemolysis After 21 Day Storage,RBC [5]; 1 mM α-tocopherol succinate formulated in POPC:DOPS = 4:1,18.3%
same,Hemolysis After 21 Day Storage,RBC [5]; 1 mM α-tocopherol succinate formulated in POPC:DOPS:chol = 9:1:10,6.1%
same,Hemolysis After 21 Day Storage,RBC [5]; 1 mM α-tocopherol succinate formulated in POPC,1.2%
